Results taken from the supplement of paper PMC10307832.

The cell lines below were run with O=C(/C=C/c1cccnc1)NCCCCC1CCN(C(=O)c2ccccc2)CC1 [Daporinad] + COc1cc2c(Oc3ccc(NC(=O)C4(C(=O)Nc5ccc(F)cc5)CC4)cc3F)ccnc2cc1OCCCN1CCOCC1 [Foretinib] (partner 0.25 µM) (assay: relative viability (nuclei count vs DMSO), 5 days (fraction); higher = more cells survive). Settings: first compound 0.0005 µM.
Summary of the method: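 Lung cancer cell lines in 1536-well plates were dosed by pin tool the day after seeding, either with one drug alone or with a fixed anchor-drug dose plus five library-drug doses (not always all listed) in √10 steps. After 5 days, cells were fixed and their nuclei stained in one step (final 0.05% Triton X-100, 1% formaldehyde, 1 ug/ml Hoechst), then counted on 4× images. Relative viability is the nuclei count in treated wells divided by that in vehicle wells. Values are medians of duplicate plates.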

| Cell Line | relative viability |
| --- | --- |
| NCI-H1650 | 1.29 |
| EBC-1 | 0.101 |
| NCI-H1703 | 0.33 |
| NCI-H1993 | 0.749 |
| NCI-H441 | 1.24 |
| PC-14 | 0.985 |
| LCLC-103H | 0.846 |
| NCI-H596 | 0.864 |
| NCI-H2126 | 1.24 |
| EMC-BAC-2 | 1.14 |
| NCI-H2085 | 0.872 |
| Calu-6 | 0.768 |
| HCC-366 | 0.962 |
| NCI-H1666 | 0.962 |
| NCI-H647 | 1.32 |
| LK-2 | 1.08 |
| NCI-H2087 | 1.1 |
| NCI-H358 | 0.689 |
| NCI-H2170 | 0.764 |
| H3255 | 0.709 |

| Cell Line | relative viability |
| --- | --- |
| COR-L23 | 0.993 |
| COR-L 105 | 1.09 |
| IA-LM | 1.06 |
| LOU-NH91 | 0.95 |
| ChaGo-K-1 | 0.968 |
| NCI-H1793 | 0.738 |
| NCI-H2405 | 1.16 |
| HOP-62 | 0.838 |
| A549 | 1.03 |
| SK-MES-1 | 0.837 |
| LU99A | 0.774 |
| SW 900 | 0.881 |
| NCI-H727 | 1.01 |
| NCI-H1299 | 1.12 |
| NCI-H650 | 1.08 |
| NCI-H1623 | 0.726 |
| NCI-H1563 | 0.893 |
| ABC-1 | 1.09 |
| NCI-H661 | 0.999 |

Same assay, conditions: first compound 0.001581 µM

| Cell Line | relative viability |
| --- | --- |
| NCI-H2342 | 0.974 |
| NCI-H838 | 1.11 |
| NCI-H1650 | 1.21 |
| EBC-1 | 0.0907 |
| NCI-H1703 | 0.347 |
| NCI-H1993 | 0.741 |
| NCI-H441 | 0.997 |
| PC-14 | 1.06 |
| LCLC-103H | 0.834 |
| NCI-H596 | 0.965 |
| NCI-H2126 | 1.15 |
| EMC-BAC-2 | 1.1 |
| NCI-H2085 | 0.973 |
| Calu-6 | 0.874 |
| HCC-366 | 0.844 |
| NCI-H1666 | 0.958 |
| NCI-H647 | 1.18 |
| LK-2 | 1.54 |

| Cell Line | relative viability |
| --- | --- |
| NCI-H2087 | 1.3 |
| NCI-H358 | 0.898 |
| NCI-H2170 | 1.03 |
| H3255 | 0.688 |
| COR-L23 | 1.01 |
| COR-L 105 | 0.812 |
| IA-LM | 1.12 |
| LOU-NH91 | 0.991 |
| ChaGo-K-1 | 0.943 |
| NCI-H1793 | 0.868 |
| NCI-H2405 | 1.08 |
| HOP-62 | 1.01 |
| A549 | 0.964 |
| SK-MES-1 | 1.19 |
| LU99A | 0.807 |
| SW 900 | 0.765 |
| NCI-H727 | 0.908 |
| NCI-H1299 | 1.08 |
